Drawing on US20260297060A1, “COMPOUNDS FOR THE DEGRADATION OF MUTANT BRAF” (C4 THERAPEUTICS, INC., priority 2023, published 2026), this text covers DC50 and Emax for 13 compounds.

For this assay, the target named is T1, BRAF V600E (Homo sapiens, UniProt P15056+Q96SW2, V600E).
T1 construct: knock-in of the HiBiT tag to the endogenous BRAF V600E locus; host or cells: A375.10 (A375 clonal line, CRISPR HiBiT knock-in at the endogenous BRAF V600E locus)
In words: BRAF V600E HiBiT Degradation Assay. It is filed as cell-based. In a few lines:
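Endogenous HiBiT knock-in on BRAF V600E in A375 cells (clone A375.10); 11-point half-log series, top 10 μM, 2, 6 or 24 h at 37° C. Lytic HiBiT luminescence, background-subtracted, normalized to DMSO; 4-parameter fit gives DC50, Emax (residual protein) and IP (inflection point).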

The mark [1] stands for this setting: A375.10 cells, BRAF V600E, 2 hours, inflection point, read-out: HiBiT-Degradation A375.10 BRAF 2 hours IP.
The mark [2] stands for this setting: A375.10 cells, BRAF V600E, 2 hours, read-out: HiBiT-Degradation A375.10 BRAF 2 hours DC50.
[3] abbreviates: A375.10 cells, BRAF V600E, 6 hours, inflection point, read-out: HiBiT-Degradation A375.10 BRAF 6 hours IP.
Where [4] appears, read: A375.10 cells, BRAF V600E, 6 hours, read-out: HiBiT-Degradation A375.10 BRAF 6 hours DC50.
Setting [5] is: A375.10 cells, BRAF V600E, 6 hours, residual protein remaining, read-out: HiBiT-Degradation A375.10 BRAF 6 hours Emax.
The mark [6] stands for this setting: A375.10 cells, HiBiT, BRAF V600E, 24 hours, read-out: HiBiT-Degradation A375.10 BRAF 24 hours DC50.
[7] abbreviates: A375.10 cells, HiBiT, BRAF V600E, 24 hours, read-out: HiBiT-Degradation A375.10 BRAF 24 hours Emax.
Setting [8] is: A375.10 cells, HiBiT, BRAF V600E, 24 hours, read-out: HiBiT-Degradation A375.10 BRAF 24 hours IP.
Setting [9] is: read-out: HiBiT-Degradation A375.10 BRAF 2 hours Emax, A375.10 cells, BRAF V600E, 2 hours, residual protein remaining.
[10] abbreviates: A375.10 cells, BRAF V600E, 2 hours, residual protein remaining, read-out: HiBiT-Degradation A375.10 BRAF 2 hours Emax.

Like-named read-outs stand apart in the source and are kept apart here.

T1 sequence (P15056 whole entry V600E): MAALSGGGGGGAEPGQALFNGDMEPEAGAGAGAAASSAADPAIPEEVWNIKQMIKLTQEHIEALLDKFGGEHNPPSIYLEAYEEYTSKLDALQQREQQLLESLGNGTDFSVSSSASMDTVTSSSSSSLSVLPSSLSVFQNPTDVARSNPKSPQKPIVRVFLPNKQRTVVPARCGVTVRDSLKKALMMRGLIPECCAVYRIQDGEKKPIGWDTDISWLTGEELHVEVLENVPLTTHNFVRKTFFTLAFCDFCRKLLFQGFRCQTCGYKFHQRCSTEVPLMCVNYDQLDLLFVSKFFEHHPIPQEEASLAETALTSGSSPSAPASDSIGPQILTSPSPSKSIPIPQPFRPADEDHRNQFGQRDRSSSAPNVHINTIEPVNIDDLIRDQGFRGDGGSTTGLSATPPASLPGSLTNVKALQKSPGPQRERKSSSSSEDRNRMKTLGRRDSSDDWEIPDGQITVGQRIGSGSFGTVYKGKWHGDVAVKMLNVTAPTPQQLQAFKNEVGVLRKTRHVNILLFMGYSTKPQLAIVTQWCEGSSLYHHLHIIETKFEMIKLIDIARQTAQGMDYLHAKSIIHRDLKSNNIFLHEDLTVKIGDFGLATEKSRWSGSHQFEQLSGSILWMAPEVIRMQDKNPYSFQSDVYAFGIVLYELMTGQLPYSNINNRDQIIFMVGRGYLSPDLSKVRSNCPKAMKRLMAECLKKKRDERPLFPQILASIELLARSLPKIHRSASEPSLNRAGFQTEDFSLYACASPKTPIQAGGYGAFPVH
T1 sequence (Q96SW2 whole entry): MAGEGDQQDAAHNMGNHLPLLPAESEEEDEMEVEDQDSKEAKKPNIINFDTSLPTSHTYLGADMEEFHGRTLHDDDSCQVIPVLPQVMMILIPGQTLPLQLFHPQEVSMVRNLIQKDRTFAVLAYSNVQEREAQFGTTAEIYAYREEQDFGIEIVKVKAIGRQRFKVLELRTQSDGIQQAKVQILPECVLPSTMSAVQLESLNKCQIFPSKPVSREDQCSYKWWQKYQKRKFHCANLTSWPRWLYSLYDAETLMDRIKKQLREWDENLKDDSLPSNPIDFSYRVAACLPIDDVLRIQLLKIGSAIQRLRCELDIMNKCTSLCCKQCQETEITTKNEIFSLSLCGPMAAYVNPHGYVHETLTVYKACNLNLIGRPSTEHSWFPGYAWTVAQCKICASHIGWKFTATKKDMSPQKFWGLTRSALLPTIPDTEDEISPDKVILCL
T1 sequence (Q16531 whole entry partner): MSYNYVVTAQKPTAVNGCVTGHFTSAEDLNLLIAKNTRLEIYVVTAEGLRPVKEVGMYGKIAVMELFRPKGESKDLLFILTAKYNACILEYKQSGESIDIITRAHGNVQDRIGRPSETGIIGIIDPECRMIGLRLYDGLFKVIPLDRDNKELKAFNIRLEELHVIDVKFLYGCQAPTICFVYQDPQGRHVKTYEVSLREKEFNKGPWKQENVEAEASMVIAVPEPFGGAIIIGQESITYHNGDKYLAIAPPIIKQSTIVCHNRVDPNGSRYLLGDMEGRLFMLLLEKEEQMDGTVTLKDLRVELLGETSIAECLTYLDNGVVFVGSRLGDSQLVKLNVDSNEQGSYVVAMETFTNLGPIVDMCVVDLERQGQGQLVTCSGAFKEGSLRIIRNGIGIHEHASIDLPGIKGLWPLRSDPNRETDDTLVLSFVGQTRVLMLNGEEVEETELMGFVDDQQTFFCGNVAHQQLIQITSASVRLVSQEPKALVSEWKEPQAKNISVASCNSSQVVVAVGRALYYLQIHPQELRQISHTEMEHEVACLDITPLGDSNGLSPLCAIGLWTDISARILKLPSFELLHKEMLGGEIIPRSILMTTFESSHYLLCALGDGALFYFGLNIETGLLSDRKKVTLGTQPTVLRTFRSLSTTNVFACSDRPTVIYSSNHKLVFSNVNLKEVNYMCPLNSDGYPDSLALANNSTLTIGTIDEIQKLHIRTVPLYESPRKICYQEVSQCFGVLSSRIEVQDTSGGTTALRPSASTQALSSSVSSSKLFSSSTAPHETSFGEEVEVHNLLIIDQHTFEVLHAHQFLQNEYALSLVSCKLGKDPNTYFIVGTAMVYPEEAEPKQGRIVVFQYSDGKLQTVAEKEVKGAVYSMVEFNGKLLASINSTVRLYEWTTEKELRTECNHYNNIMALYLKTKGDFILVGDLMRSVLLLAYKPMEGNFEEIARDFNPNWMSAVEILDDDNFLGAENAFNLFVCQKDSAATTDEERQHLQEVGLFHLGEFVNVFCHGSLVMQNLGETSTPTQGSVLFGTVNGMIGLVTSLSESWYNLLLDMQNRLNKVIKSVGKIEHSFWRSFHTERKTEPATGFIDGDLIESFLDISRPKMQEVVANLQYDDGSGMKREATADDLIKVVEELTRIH

The term Emax denotes the greatest response seen or fitted, relative to the assay's reference. In the case of `CCN(C)S(=O)(=O)Nc1ccc(F)c(Oc2ccc3ncc([C@H]4COC5(CCN(C6CCC(c7ccc(NC8CCC(=O)NC8=O)cc7F)CC6)CC5)C4)nc3c2)c1C#N` (single isomer, unassigned) [Compound 58], the DC50 is, setting by setting: under setting [1], < 1 µM; under setting [2], < 1 µM; under setting [3], < 1 µM; under setting [4], < 1 µM; under setting [6], < 1 µM; under setting [8], < 1 µM. The Emax under setting [5] was < 50%, the Emax under setting [7] was < 50% and the Emax under setting [9] is < 50%.
Consider `CN(CCO)S(=O)(=O)Nc1ccc(F)c(Oc2ccc3ncn([C@H]4COC5(CCN(C6CCC(c7ccc(NC8CCC(=O)NC8=O)cc7F)CC6)CC5)C4)c(=O)c3c2)c1C#N` (single isomer, unassigned) [Compound 76], for which the DC50 by setting is: under setting [1], < 1 µM; under setting [2], < 1 µM; under setting [3], < 1 µM; under setting [4], < 1 µM; under setting [6], < 1 µM; under setting [8], < 1 µM. Besides, the maximum response (Emax) is < 50% under setting [10], < 50% under setting [5] and < 50% under setting [7].
Regarding `CO[C@@H]1CCN(S(=O)(=O)Nc2ccc(F)c(Oc3ccc4ncn(C5CC6(CCN(C7CCC(c8cc9c(cc8F)c(N8CCC(=O)NC8=O)nn9C)CC7)CC6)C5)c(=O)c4c3)c2C#N)C1` (single isomer, unassigned) [Compound 101], the DC50 runs as follows: under setting [1], < 1 µM; under setting [2], < 1 µM; under setting [3], < 1 µM; under setting [4], < 1 µM; under setting [6], < 1 µM; under setting [8], < 1 µM. Moreover, the Emax under setting [10] is < 50%, the Emax under setting [5] was < 50% and the maximum response (Emax) under setting [7] was < 50%.
For `CC(C)S(=O)(=O)Nc1ccc(F)c(Oc2ccc3ncn([C@H]4COC5(CCN(C6CC7(C6)CN(c6cc8c(cc6F)c(N6CCC(=O)NC6=O)nn8C)C7)CC5)C4)c(=O)c3c2)c1C#N` [Compound 134, N-[2-cyano-3-[3-[(3R)-8-[2-[3-(2,4-dioxohexahydropyrimidin-1-yl)-5-fluoro-1-methyl-indazol-6-yl]-2-azaspiro[3.3]heptan-6-yl]-1-oxa-8-azaspiro[4.5]decan-3-yl]-4-oxo-quinazolin-6-yl]oxy-4-fluoro-phenyl]propane-2-sulfonamide], the DC50 by setting is: under setting [1], < 1 µM; under setting [2], < 1 µM; under setting [3], < 1 µM; under setting [4], < 1 µM; under setting [6], < 1 µM; under setting [8], < 1 µM. The Emax under setting [10] was in the range of 50 to 90%, the maximal response (Emax) under setting [5] was < 50% and the Emax under setting [7] was < 50%.
Consider `Cn1nc(N2CCC(=O)NC2=O)c2cc(F)c(N3CC4(CC(N5CCC6(CC5)C[C@@H](n5cnc7ccc(Oc8c(F)ccc(NS(=O)(=O)N9CC%10(CCC%10)C9)c8C#N)cc7c5=O)CO6)C4)C3)cc21` [Compound 254, N-[2-cyano-3-[3-[(3R)-8-[2-[3-(2,4-dioxohexahydropyrimidin-1-yl)-5-fluoro-1-methyl-indazol-6-yl]-2-azaspiro[3.3]heptan-6-yl]-1-oxa-8-azaspiro[4.5]decan-3-yl]-4-oxo-quinazolin-6-yl]oxy-4-fluoro-phenyl]-2-azaspiro[3.3]heptane-2-sulfonamide], for which the DC50 is, setting by setting: under setting [1], < 1 µM; under setting [2], < 1 µM. The Emax under setting [9] was 50 to 90%.
For the compound `CCN(C)S(=O)(=O)Nc1ccc(F)c(Oc2ccc3ncn(CC4CCN(C5CCC(c6cc7c(cc6F)c(N6CCC(=O)NC6=O)nn7C)CC5)CC4)c(=O)c3c2)c1C#N` (single isomer, unassigned) [Compound 126, 6-[2-cyano-3-[[ethyl(methyl)sulfamoyl]amino]-6-fluoro-phenoxy]-3-[[1-[4-[3-(2,4-dioxohexahydropyrimidin-1-yl)-5-fluoro-1-methyl-indazol-6-yl]cyclohexyl]-4-piperidyl]methyl]-4-oxo-quinazoline], the DC50 is, setting by setting: under setting [1], < 1 µM; under setting [2], < 1 µM; under setting [3], < 1 µM; under setting [4], < 1 µM; under setting [6], < 1 µM; under setting [8], < 1 µM. In addition, the Emax by setting is: under setting [10], < 50%; under setting [5], < 50%; under setting [7], < 50%.
Turning to `Cn1nc(N2CCC(=O)NC2=O)c2cc(F)c(C3CCC(N4CCC5(CC4)CC(n4cnc6ccc(Oc7c(F)ccc(NS(=O)(=O)N8CC[C@@H](F)C8)c7C#N)cc6c4=O)C5)CC3)cc21` (single isomer, unassigned) [Compound 122], the DC50 is, setting by setting: under setting [1], < 1 µM; under setting [2], < 1 µM; under setting [3], < 1 µM; under setting [4], < 1 µM; under setting [6], < 1 µM; under setting [8], < 1 µM. For the same compound, the Emax reads like this: under setting [10], < 50%; under setting [5], < 50%; under setting [7], < 50%.
As for `CO[C@H]1CCN(S(=O)(=O)Nc2ccc(F)c(Oc3ccc4ncn(C5CC6(CCN(C7CCC(c8cc9c(cc8F)c(N8CCC(=O)NC8=O)nn9C)CC7)CC6)C5)c(=O)c4c3)c2C#N)C1` (single isomer, unassigned) [Compound 103], the DC50 is, setting by setting: under setting [1], < 1 µM; under setting [2], < 1 µM; under setting [3], < 1 µM; under setting [4], < 1 µM; under setting [6], < 1 µM; under setting [8], < 1 µM. For the same compound, the Emax under setting [10] is < 50%, the Emax under setting [5] is < 50% and the Emax under setting [7] was < 50%.
`Cn1nc(N2CCC(=O)NC2=O)c2cc(F)c(N3CC4(CC(N5CCC6(CC5)CC(n5cnc7ccc(Oc8c(F)ccc(NS(=O)(=O)N9C[C@H]%10C[C@H]%10C9)c8C#N)cc7c5=O)C6)C4)C3)cc21` (stereo partly drawn) [Compound 277, (1R,5S)-N-[2-cyano-3-[3-[7-[2-[3-(2,4-dioxohexahydropyrimidin-1-yl)-5-fluoro-1-methyl-indazol-6-yl]-2-azaspiro[3.3]heptan-6-yl]-7-azaspiro[3.5]nonan-2-yl]-4-oxo-quinazolin-6-yl]oxy-4-fluoro-phenyl]-3-azabicyclo[3.1.0]hexane-3-sulfonamide]: the DC50 is < 1 µM under setting [1] and < 1 µM under setting [2]. In addition, the maximum response (Emax) under setting [9] is < 50%.
Turning to `CCN(C)S(=O)(=O)Nc1ccc(F)c(Oc2ccc3ncc([C@@H]4COC5(CCN(C6CCC(c7ccc(NC8CCC(=O)NC8=O)cc7F)CC6)CC5)C4)nc3c2)c1C#N` (single isomer, unassigned) [Compound 60], the DC50 under setting [1] was < 1 µM; the DC50 under setting [2] was < 1 µM; the DC50 under setting [3] is < 1 µM; the DC50 under setting [4] is < 1 µM; the DC50 under setting [6] was < 1 µM; the DC50 under setting [8] was < 1 µM. Besides, the Emax was < 50% under setting [5], < 50% under setting [7] and < 50% under setting [9].
Consider `CCN(C)S(=O)(=O)Nc1ccc(F)c(Oc2ccc3ncc([C@H]4COC5(CCN(C6CCC(c7cc8c(cc7F)c(N7CCC(=O)NC7=O)nn8C)CC6)CC5)C4)nc3c2)c1C#N` (single isomer, unassigned) [Compound 48], for which the DC50 is < 1 µM under setting [1]; < 1 µM under setting [2]; < 1 µM under setting [3]; < 1 µM under setting [4]; < 1 µM under setting [6]; < 1 µM under setting [8]. Also, the Emax reads like this: under setting [5], < 50%; under setting [7], < 50%; under setting [9], < 50%.
With `CCN(C)S(=O)(=O)Nc1ccc(F)c(Oc2ccc3ncc([C@H]4COC5(CCN(C6CC7(C6)CN(c6cc8c(cc6F)c(N6CCC(=O)NC6=O)nn8C)C7)CC5)C4)nc3c2)c1C#N` [Compound 158, (3S)-3-[7-[2-cyano-3-[[ethyl(methyl)sulfamoyl]amino]-6-fluoro-phenoxy]quinoxalin-2-yl]-8-[2-[3-(2,4-dioxohexahydropyrimidin-1-yl)-5-fluoro-1-methyl-indazol-6-yl]-2-azaspiro[3.3]heptan-6-yl]-1-oxa-8-azaspiro[4.5]decane], the DC50 by setting is: under setting [1], < 1 µM; under setting [2], 1 to 10 µM. The Emax under setting [9] lay within 50 to 90%.
`CCN(C)S(=O)(=O)Nc1ccc(F)c(Oc2ccc3ncn([C@H]4COC5(CCN(C6CC(c7ccc(NC8CCC(=O)NC8=O)cc7F)C6)CC5)C4)c(=O)c3c2)c1C#N` (single isomer, unassigned) [Compound 62]: the DC50 is < 1 µM under setting [1]; < 1 µM under setting [2]; < 1 µM under setting [3]; < 1 µM under setting [4]; < 1 µM under setting [6]; < 1 µM under setting [8]. In addition, the Emax reads like this: under setting [10], < 50%; under setting [5], < 50%; under setting [7], < 50%.
